Experiments:
[1] = target: CDK2/Cyclin E1 (Homo sapiens, UniProt P24941); assay: ADP-Glo Luminescent Kinase Assay (CDK2/E1-37C); assay type: biochemical; settings: 0.18 nM CDK2/Cyclin E1, 100 μM ATP, 1.5 μM Histone H1, 37° C., 60 min pre-incubation; read-out: ADPGLO (CDK2/E1-37C): IC50
Procedure, shortened: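 Human CDK2/Cyclin E1 preincubated with inhibitor 60 min at 37 °C, then reacted 90 min at 37 °C with final 0.18 nM enzyme, 100 μM ATP, 1.5 μM Histone H1 in HEPES pH 7.5 buffer. ADP formed read by ADP-Glo luminescence; IC50 from four-parameter fit.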

[2] = test system: Kuramochi cells; assay: IncuCyte cell proliferation assay; assay type: cell-based; settings: Kuramochi cells labeled with mApple-H2B, cell count 0 to 72 hours, 20 μM top concentration; read-out: IncuCyte Kuramochi RB-WT: IC50
Procedure, shortened: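 Kuramochi cells expressing mApple-H2B were treated with a 10-point, ½-log dilution series (top 20 μM). Fluorescent nuclei were counted by IncuCyte imaging at 0 and 72 h. The fold change in cell count was normalized to DMSO wells and fitted to dose-response curves to give […].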

Structure (SMILES)	IC50 [1]	IC50 [2]
C[C@@H](OCC12CCC(CC1)OC2)[C@H](NC(=O)[C@@H]1CN(C(=O)c2cnn(Cc3ccc(C(F)(F)F)cc3C(=O)O)c2)CC12CN(C(=O)C1(C(F)(F)F)CC1)C2)C(=O)N1CCC(c2nccs2)CC1 [Example I-83, ((4-((S)-8-(((2S,3R)-3-((2-oxabicyclo[2.2.2]octan-4-yl)methoxy)-1-oxo-1-(4-(thiazol-2-yl)piperidin-1-yl)butan-2-yl)carbamoyl)-2-(1-(trifluoromethyl)cyclopropane-1-carbonyl)-2,6-diazaspiro[3.4]octane-6-carbonyl)-1H-pyrazol-1-yl)methyl)-5-(trifluoromethyl)benzoic acid]	< 0.5 µM	> 20 µM
COC(=O)CCNC(=O)[C@@H](NC(=O)[C@@H]1CN(C(=O)c2cnn(Cc3ccc(C(F)(F)F)cc3)c2)CC12CN(C(=O)C1(C(F)(F)F)CC1)C2)[C@@H](C)OCC12CCC(CC1)OC2 [Example I-84]	0.5 to 5 µM	< 0.5 µM
C[C@@H](OCC12CCC(CC1)OC2)[C@H](NC(=O)[C@@H]1CN(C(=O)c2cnn(Cc3ccc(C(F)(F)F)cc3)c2)CC12CN(C(=O)C1(C(F)(F)F)CC1)C2)C(=O)NS(=O)(=O)c1ccc(F)cc1 [Example I-85, (S)—N-((2S,3R)-3-((2-oxabicyclo[2.2.2]octan-4-yl)methoxy)-1-((4-fluorophenyl)sulfonamido)-1-oxobutan-2-yl)-6-(1-(4-(trifluoromethyl)benzyl)-1H-pyrazole-4-carbonyl)-2-(1-(trifluoromethyl)cyclopropane-1-carbonyl)-2,6-diazaspiro[3.4]octane-8-carboxamide]	< 0.5 µM	> 20 µM
C[C@@H](OCC12CCC(CC1)OC2)[C@@H](COC1CCC(c2ccc(C(=O)O)cc2)CC1)NC(=O)[C@@H]1CN(C(=O)c2cnn(Cc3ccc(C(F)(F)F)cc3)c2)CC12CN(C(=O)C1(C(F)(F)F)CC1)C2 (stereo partly drawn) [Example I-86, 4-(4-((2R,3R)-3-(2-oxabicyclo[2.2.2]octan-4-ylmethoxy)-2-((S)-6-(1-(4-(trifluoromethyl)benzyl)-1H-pyrazole-4-carbonyl)-2-(1-(trifluoromethyl)cyclopropanecarbonyl)-2,6-diazaspiro[3.4]octane-8-carboxamido)butoxy)cyclohexyl)benzoic acid]	0.5 to 5 µM	> 20 µM
C[C@@H](OCC12CCC(CC1)OC2)[C@H](NC(=O)[C@@H]1CN(C(=O)c2cnn(Cc3ccccc3)c2)CC12CN(C(=O)C1(C(F)(F)F)CC1)C2)C(=O)N1CCN(c2ccc(C(=O)O)cc2)CC1 [Example I-87, 4-(4-(O-((2-oxabicyclo[2.2.2]octan-4-yl)methyl)-N—((S)-6-(1-benzyl-1H-pyrazole-4-carbonyl)-2-(1-(trifluoromethyl)cyclopropane-1-carbonyl)-2,6-diazaspiro[3.4]octane-8-carbonyl)-L-threonyl)piperazin-1-yl)benzoic acid]	< 0.5 µM	5 to 20 µM
C[C@@H](OCC12CCC(CC1)OC2)[C@H](NC(=O)[C@@H]1CN(C(=O)c2cnn(Cc3ccccc3C(=O)O)c2)CC12CN(C(=O)C1(C(F)(F)F)CC1)C2)C(=O)N1CCC(c2nccs2)CC1 [Example I-88, 2-((4-((S)-8-(((2S,3R)-3-(2-oxabicyclo[2.2.2]octan-4-ylmethoxy)-1-oxo-1-(4-(thiazol-2-yl)piperidin-1-yl)butan-2-yl)carbamoyl)-2-(1-(trifluoromethyl)cyclopropanecarbonyl)-2,6-diazaspiro[3.4]octane-6-carbonyl)-1H-pyrazol-1-yl)methyl)benzoic acid]	< 0.5 µM	> 20 µM
C[C@@H](OCC12CCC(CC1)OC2)[C@H](NC(=O)[C@@H]1CN(C(=O)c2cnc(O)cn2)CC12CN(C(=O)C1CC1(C)C)C2)C(=O)N1CCC(c2ccc(C(F)(F)F)c(C(=O)O)c2)CC1 (stereo partly drawn) [Example I-90, 5-(1-(O-((2-oxabicyclo[2.2.2]octan-4-yl)methyl)-n-((s)-2-((s)-2,2-dimethylcyclopropane-1-carbonyl)-6-(5-hydroxypyrazine-2-carbonyl)-2,6-diazaspiro[3.4]octane-8-carbonyl)-L-threonyl)piperidin-4-yl)-2-(trifluoromethyl)benzoic acid]	< 0.5 µM	> 20 µM
C[C@@H](OCC12CCC(CC1)OC2)[C@H](NC(=O)[C@@H]1CN(C(=O)c2cnn(Cc3ccc(C(F)(F)F)cc3)c2)CC12CN(C(=O)C1(C(F)(F)F)CC1)C2)C(=O)N1CCC(c2nccs2)CC1 [Example I-91, (S)—N-((2S,3R)-3-(2-oxabicyclo[2.2.2]octan-4-ylmethoxy)-1-oxo-1-(4-(thiazol-2-yl)piperidin-1-yl)butan-2-yl)-6-(1-(4-(trifluoromethyl)benzyl)-1H-pyrazole-4-carbonyl)-2-(1-(trifluoromethyl)cyclopropanecarbonyl)-2,6-diazaspiro[3.4]octane-8-carboxamide]	< 0.5 µM	0.5 to 5 µM
C[C@@H](OCC12CCC(CC1)OC2)[C@H](NC(=O)[C@@H]1CN(C(=O)c2cnn(Cc3ccc(C(F)(F)F)cc3)c2)CC12CN(C(=O)C1(C(F)(F)F)CC1)C2)C(=O)N1CCC(c2ccc(C(=O)O)nc2)CC1 [Example I-92, 5-(1-(O-((2-oxabicyclo[2.2.2]octan-4-yl)methyl)-N—((S)-6-(1-(4-(trifluoromethyl)benzyl)-1H-pyrazole-4-carbonyl)-2-(1-(trifluoromethyl)cyclopropane-1-carbonyl)-2,6-diazaspiro[3.4]octane-8-carbonyl)-L-threonyl)piperidin-4-yl)picolinic acid]	< 0.5 µM	> 20 µM
C[C@@H](OCC12CCC(CC1)OC2)[C@H](NC(=O)[C@@H]1CN(C(=O)c2cnn(Cc3ccc(C(F)(F)F)cc3)c2)CC12CN(C(=O)C1(C(F)(F)F)CC1)C2)C(=O)N1CCC(c2cc(F)c(C(=O)O)c(F)c2)CC1 [Example I-94]	< 0.5 µM	> 20 µM
C[C@@H](OCC12CCC(CC1)OC2)[C@H](NC(=O)[C@@H]1CN(C(=O)c2cnn(Cc3ccccc3C(=O)O)c2)CC12CN(C(=O)[C@H]1CC1(C)C)C2)C(=O)N1CCC2(CCNCC2)CC1 [Example I-96]	< 0.5 µM	> 20 µM
COC(=O)C(C)(C)Oc1ccc(C2CCN(C(=O)[C@@H](NC(=O)[C@@H]3CN(C(=O)c4cnn(Cc5ccc(C(F)(F)F)cc5)c4)CC34CN(C(=O)C3(C(F)(F)F)CC3)C4)[C@@H](C)OCC34CCC(CC3)OC4)CC2)cc1C(F)(F)F [Example I-98]	> 10 µM	> 20 µM
C[C@@H](OCC12CCC(CC1)OC2)[C@H](NC(=O)[C@@H]1CN(C(=O)c2cnn(Cc3ccc(C(F)(F)F)cc3)c2)CC12CN(C(=O)C1(C(F)(F)F)CC1)C2)C(=O)N1CCC(c2ccc(C(=O)O)cc2)CC1 [Example I-99]	< 0.5 µM	> 20 µM
C[C@@H](OCC12CCC(CC1)OC2)[C@H](NC(=O)[C@@H]1CN(C(=O)c2cnn(Cc3ccc(C(F)(F)F)cc3)c2)CC12CN(C(=O)C1(C(F)(F)F)CC1)C2)C(=O)N1CCC(c2nnn[nH]2)CC1 [Example I-100]	< 0.5 µM	> 20 µM
C[C@@H](OCC12CCC(CC1)OC2)[C@H](NC(=O)[C@@H]1CN(C(=O)c2cnn(CC3CCNCC3)c2)CC12CN(C(=O)C1(C(F)(F)F)CC1)C2)C(=O)N1CCC(c2ccccc2C(=O)O)CC1 [Example I-101]	0.5 to 5 µM	> 20 µM
C[C@@H](OCC12CCC(CC1)OC2)[C@H](NC(=O)[C@@H]1CN(C(=O)c2cnn(Cc3ccccc3C(=O)OC(C)(C)C)c2)CC12CN(C(=O)C1(C(F)(F)F)CC1)C2)C(=O)NCCC1CCN(C(=O)OC(C)(C)C)CC1 [Example I-103]	< 0.5 µM	0.5 to 5 µM
Cc1cc(C2CCN(C(=O)[C@@H](NC(=O)[C@@H]3CN(C(=O)c4cnn(Cc5ccc(C(F)(F)F)cc5)c4)CC34CN(C(=O)C3(C(F)(F)F)CC3)C4)[C@@H](C)OCC34CCC(CC3)OC4)CC2)cc(C(F)(F)F)c1OCC(=O)O [Example I-104]	< 0.5 µM	> 20 µM
C[C@@H](OCC12CCC(CC1)OC2)[C@@H](COC1CCC(c2nccs2)CC1)NC(=O)[C@@H]1CN(C(=O)c2cnn(Cc3ccc(C(F)(F)F)cc3)c2)CC12CN(C(=O)C1(C(F)(F)F)CC1)C2 (stereo partly drawn) [Example I-107, (S)—N-((2R,3R)-3-(2-oxabicyclo[2.2.2]octan-4-ylmethoxy)-1-((4-(thiazol-2-yl)cyclohexyl)oxy)butan-2-yl)-6-(1-(4-(trifluoromethyl)benzyl)-1H-pyrazole-4-carbonyl)-2-(1-(trifluoromethyl)cyclopropanecarbonyl)-2,6-diazaspiro[3.4]octane-8-carboxamide]	0.5 to 5 µM	5 to 20 µM
C[C@@H](OCC12CCC(CC1)OC2)[C@H](NC(=O)[C@@H]1CN(C(=O)c2cnn(Cc3ccccc3C(=O)OC(C)(C)C)c2)CC12CN(C(=O)C1(C(F)(F)F)CC1)C2)C(=O)N1CCN(C(=O)OC(C)(C)C)CC1 [Example I-108]	< 0.5 µM	0.5 to 5 µM
C[C@@H](OCC12CCC(CC1)OC2)[C@H](NC(=O)[C@@H]1CN(C(=O)c2cnn(Cc3ccccc3C(=O)O)c2)CC12CN(C(=O)C1(C(F)(F)F)CC1)C2)C(=O)N1CCNCC1 [Example I-109]	< 0.5 µM	> 20 µM
COC(=O)CCNC(=O)[C@@H](NC(=O)[C@@H]1CN(C(=O)c2cnn(Cc3ccc(F)cc3C(F)(F)F)c2)CC12CN(C(=O)C1(C(F)(F)F)CC1)C2)[C@@H](C)OCC12CCC(CC1)OC2 [Example I-110, Methyl 3-((2S,3R)-3-((2-oxabicyclo[2.2.2]octan-4-yl)methoxy)-2-((S)-6-(1-(4-fluoro-2-(trifluoromethyl)benzyl)-1H-pyrazole-4-carbonyl)-2-(1-(trifluoromethyl)cyclopropane-1-carbonyl)-2,6-diazaspiro[3.4]octane-8-carboxamido)butanamido)propanoate]	0.5 to 5 µM	> 20 µM
